Source: ChEMBL document CHEMBL3867428, “Eremophilane Sesquiterpenes from an Endophytic Fungus Periconia Species” (J Nat Prod, 2016)

Assays:
[1] = Antiinflammatory activity in […] cells assessed as inhibition of LPS-induced NO production at 1 uM preincubated with compound followed by LPS stimulation after 24 hrs; type: functional; conditions: Mus musculus, BV-2
[2] = Cytotoxicity against human MCF7 cells assessed as reduction in cell viability after 96 hrs by MTT assay; type: functional, cell-based; conditions: MCF7, 96 h
[3] = Cytotoxicity against human HeLa cells assessed as reduction in cell viability after 96 hrs by MTT assay; type: functional, cell-based
[4] = tested on: Human immunodeficiency virus 1; test: Antiviral activity against VSV-G pseudotyped HIV1 infected in human SupT1 cells after 48 hrs by luciferase reporter gene assay; type: functional, cell-based; conditions: Human immunodeficiency virus 1, SUP-T1, 48 h

C[C@@H]1C(=O)C=CC2=C[C@@H](O)[C@H](O)C[C@@]21C
inhibition at 1 µM [1]: 16.1%

COc1cc(/C=C/C(=O)CC(=O)/C=C/c2ccc(O)c(OC)c2)ccc1O [CURCUMIN]
inhibition at 1 µM [1]: 12.9%

CC(=O)O[C@H]1C(=O)[C@@]2(C)[C@H]([C@H](OC(=O)c3ccccc3)[C@]3(O)C[C@H](OC(=O)[C@H](O)[C@@H](NC(=O)c4ccccc4)c4ccccc4)C(C)=C1C3(C)C)[C@]1(OC(C)=O)CO[C@@H]1C[C@@H]2O [PACLITAXEL]
IC50 [2]: 0.0002 µM
IC50 [3]: 0.0064 µM

C=C(C)[C@]1(O)C[C@@]2(C)C(=C[C@H]1O)C=CC(=O)[C@@H]2C
inhibition at 1 µM [1]: 10.2%

C[C@H]1C(=O)C=CC2=C[C@@H](O)[C@H](O)C[C@@]21C
IC50 [4]: 11 µM
IC50 [3]: 16.5 µM

C=C(C)[C@@H]1C[C@@]2(C)C(=C[C@@H](O)[C@H](O)[C@@H]2C)[C@@H](O)[C@H]1O
inhibition at 1 µM [1]: 18.3%

C=C(C)[C@@]1(O)C[C@@]2(C)C(=C[C@@H]1O)C=CC(=O)[C@H]2C
IC50 [2]: 17.9 µM
